US20160193250A1, “CHORION-DERIVED MSCS CELLS AND CONDITIONED MEDIA AS INDUCER FOR ANGIOGENESIS APPLICATION FOR THE TREATMENT OF CARDIAC DEGENERATION” (CELLS FOR CELLS, priority 2013, published 2016)

Tests used:
[1] = system: genes involved in cardio-myogenesis (NKX2-5, GATA-4, MEF2C, MYH7B, GJA1, TNNT2); assay: Cardio-myogenic induction with 5-azacytidine, relative gene expression by RT-qPCR; type: cell-based, human; details: all MSC sources treated with 5-aza, 30 days of culture after induction
Source text: In order to assess chorion, decidua, gelatin of Wharton, and bone marrow MSCs cardio-myogenic potential, 3000 cells per cm^2 of each one of the MSCs were planted in biologic triplicate (3 different donors) in a plate of 6, leaving 3 bowls for induced condition and other 3 for control condition. This method was developed to obtain cells for assessment through RT-qPCR. However, in order to assess protein expression through indirect immunofluorescence (IFI), cells were planted on a […] circular glass cover placed on a 24-bowl plate, leaving 12 bowls for induced condition and 12 bowls for control condition. […]
The polymerase chain reaction in real time, preceded by reverse transcription (RT-qPCR), was based on quantification kinetics that allowed calculating the messenger RNA through the recording of PCR product forming in real time. This was the quantification, during the reaction exponential stage, of amplified PCR products and labeled with fluorochrome. In this work, a relative quantification of genes of interest was carried out, i.e. a gene of interest expression level is obtained compared to another one that keeps its expression constant and is called standardizing gene; therefore, in this thesis human gene B2M was selected as standardizing. […]

[2] = system: MSCs; assay: MSC morphology during cardiac induction with 5-aza; type: cell-based, human; details: MSCs treated with 5-aza
Source text: In order to establish morphology changes occurred in MSCs treated with 5-aza, photographs were taken daily for later analysis. […] After 20 days, confluence in both conditions was quite similar and reached 100%. In some dishes, it was common to find a reduced percentage (10%) of cells with vacuoles inside them. On the other hand, it was also noted that a large percentage (approximately 70%) of cells adopted a rounded and flat morphology, while other presented a longish tubular morphology which, in some cases, were multi-core.
For induction, MSCs we incubated with DMEM, 2% FBS, 1% Pen/Strep, 1% L-glutamine, supplemented with 10 μM 5-zacitidine (Sigma, USA) during 24 hours, and kept in a humidified and thermo-regulated incubator at 37° C. and 5% CO2. Later, they were removed from the induction medium, cells were washed three times with PBS 1× adjusted to ph 7.4 (Life Technologies, USA), and cultured in a maintenance medium during 30 days, being renewed every three days. The control condition corresponded to cells submitted to DMEM 2% FBS with no 5-aza during 24 hours, and then cultured in maintenance medium during 30 days.

SMILES: Nc1ncn([C@@H]2O[C@H](CO)[C@@H](O)[C@H]2O)c(=O)n1 [5-aza, 5-azacytidine]
- relative expression of all genes associated to cardio-myogenesis compared to control [1]: significant increase
- percentage of cells with rounded and flat morphology [2]: approximately 70%
- percentage of cells with vacuoles inside them ([2]; in some dishes): 10%
